Assays:
Assay in all cases: Bliss excess, mean over the matrix (fraction); higher = more synergy
A673 (Ewing's Sarcoma) = test system: A673 (Ewing's Sarcoma)
Method in brief: (§1)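 After 24 hours at 37°C and 5% CO2 in 1536-well plates, cells in DMEM/F12 or RPMI plus 10% FBS received two-drug dose matrices for 72 hours. Viability came from CellTiter-Glo 2.0 luminescence and was scaled as inhibition, anchored at 0 by vehicle wells and at 1 by blank wells. Combination Emax is taken as the second-highest inhibition in the matrix, and Bliss excess as the observed combination effect less EA + EB − EA·EB, with EA and EB the single-agent effects.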

[1] = test system: ALL-PO (B-Lymphoblastic Leukemia)
Method in brief: as §1

[2] = test system: BFTC-909 (Kidney Carcinoma)
Method in brief: as §1

BPH-1 (Non-Cancerous) = test system: BPH-1 (Non-Cancerous)
Method in brief: as §1

[3] = test system: ESS-1 (Other Solid Carcinomas)
Method in brief: as §1

[4] = test system: HH (T-Cell Non-Hodgkin's Lymphoma)
Method in brief: as §1

[5] = test system: HuCCT1 (Biliary Tract Carcinoma)
Method in brief: as §1

[6] = test system: KMRC-20 (Kidney Carcinoma)
Method in brief: as §1

[7] = test system: KYAE-1 (Esophageal Adenocarcinoma)
Method in brief: as §1

[8] = test system: LCLC-97TM1 (Non-Small Cell Lung Carcinoma)
Method in brief: as §1

LOXIMVI (Melanoma) = test system: LOXIMVI (Melanoma)
Method in brief: as §1

MPP-89 (Mesothelioma) = test system: MPP-89 (Mesothelioma)
Method in brief: as §1

NCI-H2052 (Mesothelioma) = test system: NCI-H2052 (Mesothelioma)
Method in brief: as §1

[9] = test system: NUGC-4 (Gastric Carcinoma)
Method in brief: as §1

[10] = test system: OV-56 (Ovarian Carcinoma)
Method in brief: as §1

[11] = test system: OVCAR-5 (Ovarian Carcinoma)
Method in brief: as §1

[12] = test system: SAS (Oral Cavity Carcinoma)
Method in brief: as §1

[13] = test system: SW1573 (Lung Adenocarcinoma)
Method in brief: as §1

[14] = test system: SW1710 (Bladder Carcinoma)
Method in brief: as §1

[15] = test system: WSU-NHL (B-Cell Non-Hodgkin's Lymphoma)
Method in brief: as §1

| SMILES | Bliss excess (A673 (Ewing's Sarcoma)) | Bliss excess [1] | Bliss excess [2] | Bliss excess (BPH-1 (Non-Cancerous)) | Bliss excess [3] | Bliss excess [4] | Bliss excess [5] | Bliss excess [6] | Bliss excess [7] | Bliss excess [8] | Bliss excess (LOXIMVI (Melanoma)) | Bliss excess (MPP-89 (Mesothelioma)) | Bliss excess (NCI-H2052 (Mesothelioma)) | Bliss excess [9] | Bliss excess [10] | Bliss excess [11] | Bliss excess [12] | Bliss excess [13] | Bliss excess [14] | Bliss excess [15] |
| --- | --- | --- | --- | --- | --- | --- | --- | --- | --- | --- | --- | --- | --- | --- | --- | --- | --- | --- | --- | --- |
| CCN(CCO)CCCOc1ccc2c(Nc3cc(CC(=O)Nc4cccc(F)c4)[nH]n3)ncnc2c1 [AZD2811] + C=CCn1c(=O)c2cnc(Nc3ccc(N4CCN(C)CC4)cc3)nc2n1-c1cccc(C(C)(C)O)n1 [AZD1775] (first compound max 1 µM, partner max 1 µM) | -0.0838 | 0.0382 | 0.0293 | -0.0007 | 0.042 | -0.0179 | -0.0344 | -0.0562 | -0.0176 | 0.033 | 0.0351 | -0.0173 | -0.0485 | -0.0708 | -0.0152 | -0.0616 | -0.0526 | 0.0297 | 0.0084 | -0.0761 |
| CC(=O)c1c(C)c2cnc(Nc3ccc(N4CCNCC4)cn3)nc2n(C2CCCC2)c1=O [Palbociclib] + Cn1cnc2c(F)c(Nc3ccc(Br)cc3Cl)c(C(=O)NOCCO)cc21 [Selumetinib] (first compound max 10 µM, 7x7, partner max 10 µM) | -0.009 | 0.0243 | 0.0424 | -0.0755 | -0.0097 | -0.0471 | 0.0282 | -0.0534 | -0.0125 | 0.0728 | 0.0724 | -0.0394 | -0.0124 | -0.0292 | -0.0587 | -0.0041 | -0.0084 | -0.0288 | 0.0054 | 0.107 |
| Cn1cnc2c(F)c(Nc3ccc(Br)cc3Cl)c(C(=O)NOCCO)cc21 [Selumetinib] + C=CCn1c(=O)c2cnc(Nc3ccc(N4CCN(C)CC4)cc3)nc2n1-c1cccc(C(C)(C)O)n1 [AZD1775] (first compound max 10 µM, partner max 1 µM) | -0.0806 | 0.0229 | -0.0047 | 0.0209 | -0.052 | -0.0605 | -0.0385 | -0.0682 | -0.0019 | -0.0335 | 0.0822 | -0.0131 | -0.0747 | -0.0286 | -0.0766 | -0.0074 | 0.0324 | -0.0582 | -0.0409 | -0.0066 |
| CN(C)CCCOc1ccc(-c2ccc3ncc4c(c3c2)n(C2CCOCC2)c(=O)n4C)cn1 [AZD0156] + C=CCn1c(=O)c2cnc(Nc3ccc(N4CCN(C)CC4)cc3)nc2n1-c1cccc(C(C)(C)O)n1 [AZD1775] (first compound max 1 µM, partner max 1 µM) | 0.0342 | 0.0128 | -0.0638 | 0.0475 | -0.124 | -0.0689 | -0.0382 | -0.0707 | -0.0143 | -0.0179 | 0.0604 | -0.0513 | -0.0554 | -0.055 | -0.0459 | -0.0043 | -0.0742 | -0.0423 | -0.0205 | -0.002 |
| NC1(C(=O)N[C@@H](CCO)c2ccc(Cl)cc2)CCN(c2ncnc3[nH]ccc23)CC1 [Capivasertib] + CC(C)n1c(=O)n(C)c2cnc3cc(F)c(-c4ccc(OCCCN5CCCCC5)nc4)cc3c21 [AZD1390] (first compound max 10 µM, 7x7, partner max 0.3 µM) | -0.0885 | -0.0382 | -0.013 | -0.0842 | -0.0078 | -0.0327 | -0.0447 | -0.0651 | -0.0081 | -0.0278 | -0.0063 | -0.0069 | -0.095 | -0.0524 | -0.044 | -0.0829 | -0.036 | -0.0724 | -0.0482 | -0.0418 |
| CC1(C)CCC(CN2CCN(c3ccc(C(=O)NS(=O)(=O)c4ccc(NCC5CCOCC5)c([N+](=O)[O-])c4)c(Oc4cnc5[nH]ccc5c4)c3)CC2)=C(c2ccc(Cl)cc2)C1 [Venetoclax] + Cc1cc2ncnn2cc1Nc1ncc2c(n1)n(C1CCOCC1)c(=O)n2C [AZD7648] (first compound max 1 µM, 7x7, partner max 10 µM) | -0.0124 | 0.11 | 0.0017 | -0.0517 | -0.0501 | -0.0061 | -0.0609 | 0.0019 | -0.0128 | -0.0144 | -0.0277 | 0.0173 | -0.0019 | -0.0714 | 0.0016 | -0.075 | -0.0055 | -0.0609 | -0.0217 | -0.082 |
| COc1nnc2ccc(N3CCC(c4ccc(OCCN5CCN(C)C(=O)[C@H]5C)cc4)CC3)nn12 [AZD5153] + CCN(CCO)CCCOc1ccc2c(Nc3cc(CC(=O)Nc4cccc(F)c4)[nH]n3)ncnc2c1 [AZD2811] (first compound max 1 µM, 7x7, partner max 1 µM) | -0.0389 | -0.0134 | 0.0272 | -0.0252 | -0.0091 | 0.0055 | -0.0331 | -0.148 | -0.0092 | -0.0325 | -0.0129 | -0.0396 | -0.0479 | -0.0508 | -0.0288 | -0.0781 | -0.0499 | -0.0609 | -0.052 | -0.0807 |
| CCc1c2c(nc3ccc(O)cc13)-c1cc3c(c(=O)n1C2)COC(=O)[C@]3(O)CC [SN-38] + CN(C)CCCOc1ccc(-c2ccc3ncc4c(c3c2)n(C2CCOCC2)c(=O)n4C)cn1 [AZD0156] (first compound max 0.3 µM, 7x7, partner max 1 µM) | 0.0777 | 0.0685 | 0.0225 | 0.0463 | 0.0109 | -0.0452 | -0.0337 | -0.0156 | -0.0188 | -0.0059 | 0.0017 | 0.0342 | -0.0409 | 0.0208 | 0.0154 | -0.0235 | 0.0781 | 0.0139 | 0.0111 | 0.0636 |
| CC1(C)CCC(CN2CCN(c3ccc(C(=O)NS(=O)(=O)c4ccc(NCC5CCOCC5)c([N+](=O)[O-])c4)c(Oc4cnc5[nH]ccc5c4)c3)CC2)=C(c2ccc(Cl)cc2)C1 [Venetoclax] + C[C@@H]1COCCN1C2=NC(=NC(=C2)C3(CC3)[S@](=N)(=O)C)C4=C5C=CNC5=NC=C4 [AZD6738] (first compound max 1 µM, 7x7, partner max 10 µM) | -0.0024 | 0.0306 | -0.0384 | -0.0336 | 0.0147 | -0.0012 | -0.012 | -0.0047 | -0.0387 | -0.0506 | -0.011 | -0.0226 | -0.0406 | -0.011 | -0.0475 | -0.0717 | 0.0194 | -0.0705 | -0.0404 | -0.0913 |
| CC1(C)CCC(CN2CCN(c3ccc(C(=O)NS(=O)(=O)c4ccc(NCC5CCOCC5)c([N+](=O)[O-])c4)c(Oc4cnc5[nH]ccc5c4)c3)CC2)=C(c2ccc(Cl)cc2)C1 [Venetoclax] + CN(C)CCCOc1ccc(-c2ccc3ncc4c(c3c2)n(C2CCOCC2)c(=O)n4C)cn1 [AZD0156] (first compound max 1 µM, 7x7, partner max 1 µM) | 0.0265 | 0.108 | 0.0072 | -0.0214 | -0.0515 | -0.0066 | -0.002 | -0.0023 | -0.0166 | -0.0466 | 0.0539 | -0.0182 | -0.0184 | -0.0644 | 0.0022 | -0.0195 | -0.033 | -0.0553 | -0.0264 | -0.0402 |
| Cc1c2c(nn1C)CSCc1cc(n(C)n1)CSc1cc(c3ccccc3c1)OCCCc1c(C(=O)O)n(C)c3c-2c(Cl)ccc13 [AZD5991] + C=CCn1c(=O)c2cnc(Nc3ccc(N4CCN(C)CC4)cc3)nc2n1-c1cccc(C(C)(C)O)n1 [AZD1775] (first compound max 1 µM, partner max 1 µM) | 0.0002 | 0.0023 | 0.0639 | -0.0071 | -0.0715 | -0.0046 | 0.0676 | -0.0011 | -0.0078 | -0.0141 | -0.029 | -0.0732 | -0.0875 | -0.0128 | 0.0126 | -0.0096 | -0.0144 | -0.0337 | -0.0257 | -0.0459 |
| CC(=O)Nc1cccc(-n2c(=O)n(C3CC3)c(=O)c3c(Nc4ccc(I)cc4F)n(C)c(=O)c(C)c32)c1 [Trametinib] + Cc1nc(-c2cn3c(n2)-c2ccc(-c4cnn(C(C)(C)C(N)=O)c4)cc2OCC3)n(C(C)C)n1 [Taselisib] (first compound max 1 µM, 7x7, partner max 10 µM) | 0.229 | 0.318 | 0.182 | 0.0283 | 0.114 | 0.0868 | 0.182 | 0.0506 | 0.0462 | 0.0752 | 0.137 | 0.103 | -0.0231 | 0.0347 | -0.0025 | 0.105 | 0.145 | 0.0334 | 0.016 | 0.0079 |

— the supplement of paper PMC11061612
